According to ChEMBL document CHEMBL1201862, “PubChem BioAssay data set” (2004):
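Step 1: Grow cells in 96-well plates. Step 2: Expose to compound for 48 hours at 5 concentrations. Step 3: Interpolate endpoints linearly; if unreached, use highest concentration. The concentration for 50% growth inhibition is given as GI50.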 Activity calls are given as the source filed them. Cut-off read from the data, not from the text of the source: active = GI50 up to about 1.1 µM and inactive = higher.

Experiments:
Test in all cases: growth of human tumour cells (NCI), 48 h
OVCAR-8 = system: OVCAR-8
U-251 = system: U-251
CCRF-CEM = system: CCRF-CEM
MCF7 = system: MCF7
MDA-MB-435 = system: MDA-MB-435
HCT-15 = system: HCT-15
NCI-H522 = system: NCI-H522
T47D = system: T47D
ACHN = system: ACHN
A549 = system: A549
SW-620 = system: SW-620
SR = system: SR
UO-31 = system: UO-31
Hs-578T = system: Hs-578T
HT-29 = system: HT-29
SNB-75 = system: SNB-75
M14 = system: M14
SF-268 = system: SF-268
SNB-19 = system: SNB-19
A498 = system: A498

Compound | GI50 (OVCAR-8) | GI50 (U-251) | GI50 (CCRF-CEM) | GI50 (MCF7) | GI50 (MDA-MB-435) | GI50 (HCT-15) [µM] | GI50 (NCI-H522) | GI50 (T47D) | GI50 (ACHN) | GI50 (A549) | GI50 (SW-620) | GI50 (SR) | GI50 (UO-31) | GI50 (Hs-578T) | GI50 (HT-29) | GI50 (SNB-75) | GI50 (M14) | GI50 (SF-268) | GI50 (SNB-19) | GI50 (A498)
COC12OC3(C4OC41)C(C(=O)O[C@H]3CO[Si](C)(C)C(C)(C)C)C2S(=O)(=O)c1ccccc1 (stereo not given in full) | 4.65 µM (inactive) | > 4.65 µM (inactive) | 0.597 µM (active) | 4.1 µM (inactive) | > 4.65 µM (inactive) | 3.16 | 17.1 µM (inactive) | > 83.9 µM (inactive) | 2.69 µM (inactive) | > 4.65 µM (inactive) | 1.52 µM (inactive) | 2.63 µM (inactive) | > 4.65 µM (inactive) | 4.65 µM (inactive) | – | – | – | – | – | –
N#Cc1c(N2CCN(c3ccc([N+](=O)[O-])cc3)CC2)[n+]([O-])c2ccccc2[n+]1[O-] | 20.5 µM (inactive) | 78.2 µM (inactive) | 4.94 µM (inactive) | > 100 µM (inactive) | > 100 µM (inactive) | > 100 | 3.5 µM (inactive) | 55.6 µM (inactive) | > 100 µM (inactive) | 99.5 µM (inactive) | > 100 µM (inactive) | 1.28 µM (inactive) | 0.0155 µM (active) | – | > 100 µM (inactive) | > 100 µM (inactive) | > 100 µM (inactive) | 0.346 µM (active) | > 100 µM (inactive) | –
CC(C)(C)NC(=O)/C(=C\Sc1ccccc1)c1ccc2c(c1)OCO2 | 32 µM (inactive) | 30 µM (inactive) | 28.5 µM (inactive) | 26.1 µM (inactive) | 22.2 µM (inactive) | 30.8 | 17.9 µM (inactive) | 26 µM (inactive) | 36.9 µM (inactive) | 31 µM (inactive) | 37.8 µM (inactive) | 25.8 µM (inactive) | 26.9 µM (inactive) | – | 17.9 µM (inactive) | – | 21.8 µM (inactive) | 16.2 µM (inactive) | 38.7 µM (inactive) | 20.4 µM (inactive)
N#Cc1nc(C#N)c(NC(=O)c2ccccc2C(=O)O)[nH]1 | > 100 µM (inactive) | > 100 µM (inactive) | > 100 µM (inactive) | > 100 µM (inactive) | > 100 µM (inactive) | – | > 100 µM (inactive) | > 100 µM (inactive) | > 100 µM (inactive) | > 100 µM (inactive) | > 100 µM (inactive) | – | > 100 µM (inactive) | > 100 µM (inactive) | > 100 µM (inactive) | > 100 µM (inactive) | > 100 µM (inactive) | > 100 µM (inactive) | > 100 µM (inactive) | > 100 µM (inactive)
N#C[BH2-][n+]1cn(C2CC(O)C(COP(=O)(O)OC3CC(n4cnc5c(=O)[nH]c(N)nc54)OC3CO)O2)c2nc(N)[nH]c(=O)c21 (stereo not given) | > 100 µM (inactive) | > 100 µM (inactive) | 20.5 µM (inactive) | 39.5 µM (inactive) | > 100 µM (inactive) | > 100 | > 100 µM (inactive) | > 100 µM (inactive) | > 100 µM (inactive) | > 100 µM (inactive) | > 100 µM (inactive) | 1 µM (active) | > 100 µM (inactive) | – | > 100 µM (inactive) | > 100 µM (inactive) | > 100 µM (inactive) | > 100 µM (inactive) | > 100 µM (inactive) | > 100 µM (inactive)
CCOC(=O)c1[nH]c2cccc3c2c1CC[C@H](NC(=O)C(F)(F)F)C3=O | 19.7 µM (inactive) | 22.5 µM (inactive) | > 100 µM (inactive) | 73.1 µM (inactive) | 45.1 µM (inactive) | > 100 | – | – | < 0.01 µM (active) | 28.8 µM (inactive) | 76.7 µM (inactive) | > 100 µM (inactive) | > 100 µM (inactive) | 19.5 µM (inactive) | > 100 µM (inactive) | 24.3 µM (inactive) | 95.5 µM (inactive) | 37.1 µM (inactive) | 15.8 µM (inactive) | 43.7 µM (inactive)
CO[C@H]1C=C[C@]23c4cc5c(cc4CN(CC2O)[C@@H]3C1)OCO5 (stereo not given in full) | 3.08 µM (inactive) | 2.51 µM (inactive) | 0.314 µM (active) | – | 2.81 µM (inactive) | 1.91 | 1.72 µM (inactive) | 1.56 µM (inactive) | 0.678 µM (active) | 3.2 µM (inactive) | 3.03 µM (inactive) | – | 2.04 µM (inactive) | 2.97 µM (inactive) | 2.06 µM (inactive) | 2.36 µM (inactive) | 3.3 µM (inactive) | 2.17 µM (inactive) | 2.17 µM (inactive) | 2.06 µM (inactive)
Cc1c(C)c(C)c(CSC(=N)N)c(C)c1C | 24.1 µM (inactive) | 13.6 µM (inactive) | 15.5 µM (inactive) | 17.1 µM (inactive) | 14.2 µM (inactive) | 16.2 | 16.3 µM (inactive) | 14.6 µM (inactive) | 16.6 µM (inactive) | 17.2 µM (inactive) | 15.6 µM (inactive) | – | 6.52 µM (inactive) | 15.6 µM (inactive) | 12.5 µM (inactive) | 15.6 µM (inactive) | 10.8 µM (inactive) | 18.3 µM (inactive) | 14.6 µM (inactive) | 16.2 µM (inactive)
CC(CN(C)C)C(=O)c1ccccc1C(=O)O (stereo not given) | 30.3 µM (inactive) | 16.1 µM (inactive) | 10.1 µM (inactive) | 35.6 µM (inactive) | 20.1 µM (inactive) | 31.6 | 10.7 µM (inactive) | 37.1 µM (inactive) | 35.6 µM (inactive) | 41.1 µM (inactive) | 29.3 µM (inactive) | – | 47.2 µM (inactive) | 11.1 µM (inactive) | 38.7 µM (inactive) | – | 26.4 µM (inactive) | 14.1 µM (inactive) | 39.2 µM (inactive) | 40.8 µM (inactive)
Cc1nc2c(=S)[nH]ncc2[nH]1 | > 100 µM (inactive) | > 100 µM (inactive) | > 100 µM (inactive) | > 100 µM (inactive) | > 100 µM (inactive) | > 100 | > 100 µM (inactive) | > 100 µM (inactive) | > 100 µM (inactive) | > 100 µM (inactive) | > 100 µM (inactive) | – | > 100 µM (inactive) | – | > 100 µM (inactive) | > 100 µM (inactive) | > 100 µM (inactive) | – | > 100 µM (inactive) | > 100 µM (inactive)
N#Cc1c(-c2cccc(Cl)c2)cc(-c2ccc(Cl)cc2)nc1N | 24.6 µM (inactive) | 16.6 µM (inactive) | 18.3 µM (inactive) | 16.3 µM (inactive) | 19.1 µM (inactive) | 17.1 | 15.1 µM (inactive) | 27 µM (inactive) | 17.7 µM (inactive) | 17.5 µM (inactive) | 17.5 µM (inactive) | 15.3 µM (inactive) | 14.2 µM (inactive) | 21.1 µM (inactive) | 24.3 µM (inactive) | – | 19.1 µM (inactive) | 18.5 µM (inactive) | 11.9 µM (inactive) | –
CC(=O)OC1C2CCC3C(C)(O)C4CC(O)C(C)(C)C4(O)C(O)CC13CC2(C)O (stereo not given) | > 100 µM (inactive) | – | > 100 µM (inactive) | > 100 µM (inactive) | – | > 100 | > 100 µM (inactive) | > 100 µM (inactive) | > 100 µM (inactive) | > 100 µM (inactive) | – | > 100 µM (inactive) | > 100 µM (inactive) | > 100 µM (inactive) | > 100 µM (inactive) | > 100 µM (inactive) | > 100 µM (inactive) | > 100 µM (inactive) | > 100 µM (inactive) | > 100 µM (inactive)
O=c1c(C(c2ccc(/C=C/c3ccccc3)cc2)c2c(O)oc3cc(O)ccc3c2=O)c(O)oc2cc(O)ccc12 | 98.6 µM (inactive) | 2.88 µM (inactive) | 37.6 µM (inactive) | 49.9 µM (inactive) | 82.2 µM (inactive) | > 100 | 52 µM (inactive) | 52.6 µM (inactive) | > 100 µM (inactive) | > 100 µM (inactive) | 91.8 µM (inactive) | – | 56.9 µM (inactive) | 56.6 µM (inactive) | > 100 µM (inactive) | 29 µM (inactive) | > 100 µM (inactive) | 33.7 µM (inactive) | > 100 µM (inactive) | > 100 µM (inactive)
CCCCc1ccc(Nc2nc(N)c3[nH]cnc3n2)cc1 | 15.8 µM (inactive) | 24.4 µM (inactive) | 21.7 µM (inactive) | 18.4 µM (inactive) | 21.5 µM (inactive) | 25 | 14.7 µM (inactive) | 35.1 µM (inactive) | 17 µM (inactive) | 21.3 µM (inactive) | 30.3 µM (inactive) | – | 12.7 µM (inactive) | 17.7 µM (inactive) | 13.8 µM (inactive) | – | 31.2 µM (inactive) | 14.9 µM (inactive) | 17.8 µM (inactive) | 11.2 µM (inactive)
CC1CCCC2=C1C(c1ccc(Cl)cc1)n1c(s/c(=C\c3ccc(Cl)cc3)c1=O)=N2 (stereo not given) | > 100 µM (inactive) | > 100 µM (inactive) | > 100 µM (inactive) | > 100 µM (inactive) | > 100 µM (inactive) | > 100 | – | > 100 µM (inactive) | > 100 µM (inactive) | > 100 µM (inactive) | > 100 µM (inactive) | – | > 100 µM (inactive) | > 100 µM (inactive) | > 100 µM (inactive) | > 100 µM (inactive) | > 100 µM (inactive) | > 100 µM (inactive) | > 100 µM (inactive) | > 100 µM (inactive)
O=C1c2ccccc2C2(c3ccc(F)cc3)NCCN12 (stereo not given) | > 100 µM (inactive) | > 100 µM (inactive) | > 100 µM (inactive) | > 100 µM (inactive) | > 100 µM (inactive) | > 100 | > 100 µM (inactive) | > 100 µM (inactive) | > 100 µM (inactive) | > 100 µM (inactive) | > 100 µM (inactive) | – | > 100 µM (inactive) | > 100 µM (inactive) | > 100 µM (inactive) | > 100 µM (inactive) | > 100 µM (inactive) | > 100 µM (inactive) | > 100 µM (inactive) | –
